Activity calls are given as the source filed them. The rule behind the calls is not given here.
Columns and labels:
[1] = (§1) Toxicity in L4-stage of Caenorhabditis elegans expressing dpy-18 assessed as embyronic lethality after 24 hrs by light microscopic analysis; format: organism-based; settings: in vivo, read-out: LD50
Caenorhabditis elegans = experiment: as §1; format: organism-based; settings: in vivo, 24 h
[2] = Binding affinity to human P4H expressed in Escherichia coli at 13 mM after 30 mins by SDS-PAGE analysis
[3] = Irreversible inhibition of human P4H expressed in Escherichia coli using dansyl-Gly-phe-pro-Gly-OEt and alpha-ketoglutarate as substrate incubated up to 15 mins followed by substrate addition by Kitz-Wilson plot analysis
[4] = Binding affinity to human P4H expressed in Escherichia coli using dansyl-Gly-phe-pro-Gly-OEt as substrate at 356 mM incubated up to 5 mins followed by substrate addition by competition assay in presence of alpha-ketoglutarate

With O=C([O-])CCC(=O)C1CO1.[Na+] (racemic) the LC50 at 24 h [1] was 110 µM, the Activity (Caenorhabditis elegans) was “Dose-dependent effect” and the Activity [2] was “Active”. For the same molecule, the inhibition [3] was “Dose-dependent effect” and the Activity [4] was “Active”.

Reference: ChEMBL document CHEMBL2390904, “Bioavailable affinity label for collagen prolyl 4-hydroxylase” (Bioorg Med Chem, 2013)
